{"source": "patent US20230398049A1", "about": "“TETRAPEPTIDES, COMPOSITIONS COMPRISING THEM, AND THEIR COSMETIC USE” (Sederma, priority 2020, published 2023)", "type_in_all_cases": "cell-based", "key": {"Collagen I (PIP)": {"test_system": "Collagen I (PIP)", "experiment": "ELISA assay of collagen I synthesis (PIP) by normal human fibroblasts", "conditions": "NHF, 72 h contact, ELISA on supernatant", "description": "(§1) Normal human fibroblasts (NHF) in culture are brought into contact with the products to be tested or their excipient (negative control) for 72 h. At the end of the contact, the culture supernatants are removed, and the syntheses of the dermal macromolecules are estimated by ELISA assays. An estimate of cell viability is carried out by Hoechst assay to weight the obtained data. Collagen I is evaluated via the PIP assay (carboxy-terminal propeptide of procollagen type I) which is a peptide fragment resulting from the enzymatic degradation of procollagen when the latter is excreted outside the fibroblast (therefore in the culture medium where the assay is carried out)."}, "Fibronectine": {"test_system": "Fibronectine", "experiment": "ELISA assay of fibronectin synthesis by normal human fibroblasts", "conditions": "NHF, 72 h contact, ELISA on supernatant", "description": "as §1"}, "Decorine [1]": {"test_system": "Decorine", "experiment": "ELISA assay of decorin synthesis by normal human fibroblasts", "conditions": "NHF, 72 h contact, ELISA on supernatant", "description": "as §1"}, "Fibrillin 1": {"test_system": "Fibrillin 1", "experiment": "Immunofluorescence assay of Fibrillin 1 formation by normal human fibroblasts", "conditions": "NHF, five day incubation", "description": "Normal human fibroblasts (NHF) are cultured for at least 24 hours in fibroblast growth medium containing serum. Once confluence was reached, the cells are seeded and the actives and corresponding controls diluted in a culture medium are added. At the end of a five day incubation period, the supernatant is removed, the cells are washed with PBS and fixed. The cells are then incubated with the primary Fibrillin 1 monoclonal antibody (11C1.3) (Thermo Fisher) diluted in blocking buffer at a concentration of 1:200. The cells are incubated. The primary antibody is removed and the cells are washed with PBS. The secondary antibody was added at a dilution of 1:1000 in blocking buffer, then removed and the cells are washed with PBS. The formation of Fibrillin 1 by the cells is visualized using a fluorescence microscope. The obtained images are analyzed using an image processing software assigning a numerical value to the coverage density."}, "Collagen IV": {"test_system": "Collagen IV", "experiment": "ELISA assay of collagen IV synthesis by normal human fibroblasts", "conditions": "NHF, 72 h contact, concentrations of 2 to 3 ppm, ELISA on supernatant", "description": "as §1"}, "Hyaluronic acid": {"test_system": "Hyaluronic acid", "experiment": "ELISA assay of hyaluronic acid synthesis by normal human fibroblasts", "conditions": "NHF, 72 h contact, concentrations of 2 to 3 ppm, ELISA on supernatant", "description": "as §1"}, "Nidogen-1": {"test_system": "Nidogen-1", "experiment": "LC-MS/MS analysis of secretome and matrisome of human dermal fibroblasts: Nidogen-1", "conditions": "HDF, seven days culture, pooled secretome and matrisome, n=3, p<0.05", "description": "(§2) Protocol Human dermal fibroblasts (HDF) are cultured with or without the peptide according to the invention (control) in n=3. The cells are cultured normally for five days in serum supplemented medium, then for two additional days in serum-free medium (culture of seven days in total). The cellular medium (secretome) is collected and the matrix separated from the cells with EDTA. The secretome and matrisome are kept for LC-MS/MS analysis. The cells are saved for future analysis. The secretome and matrisome compartments are pooled and processed as single samples.\n(§3) Mass spectrometry is used to determine the total amount of certain proteins identified in the secretome and matrisome in the presence of the peptide of the invention and which are absent from the control following the day 7 of incubation. The proteins are denatured (in urea), reduced (in dithiothreitol) and mechanically dissociated (using ultrasound) prior to overnight digestion with the SMART Digest™ Trypsin Kit (Thermo Fisher).\n(§4) The samples are analyzed on an UltiMate® 3000 rapid separation liquid chromatograph coupled to a Q Exactive™ Quadrupole-Orbitrap™ hybrid mass spectrometer: 200 ng injected at an analysis time of 90 minutes per sample.\n(§5) Protein quantification is performed using Progenesis QI and protein identification using Mascot v2.5.1. Normalized protein concentrations are compared between the peptide and the control. […]"}, "Decorine [2]": {"test_system": "Decorine", "experiment": "LC-MS/MS analysis of secretome and matrisome of human dermal fibroblasts: Decorine", "conditions": "HDF, seven days culture, pooled secretome and matrisome, n=3, 0.05<p<0.1", "description": "as §2, §3, §4, §5"}, "SOD3": {"test_system": "SOD3", "experiment": "LC-MS/MS analysis of secretome and matrisome of human dermal fibroblasts: SOD3", "conditions": "HDF, seven days culture, pooled secretome and matrisome, n=3, 0.05<p<0.1", "description": "as §2, §3, §4, §5"}, "RAD23A": {"test_system": "RAD23A", "experiment": "LC-MS/MS analysis of secretome and matrisome of human dermal fibroblasts: RAD23A", "conditions": "HDF, seven days culture, pooled secretome and matrisome, n=3, 0.05<p<0.1", "description": "as §2, §3, §4, §5"}}, "note": "Peptide text beside a SMILES is read from it. * marks the point of attachment. Palmitoyl = CCCCCCCCCCCCCCCC(=O)*"}
{"molecule": "CCCCCCCCCCCCCCCC(=O)N[C@@H](CC(C)C)C(=O)N[C@@H](CCCCN)C(=O)N[C@@H](CC(C)C)C(=O)N[C@@H](CCC(=O)O)C(=O)O", "note": "[Pal-LKLE-OH, palmitoyl-leucyl-lysyl-leucyl-glutamic acid] (Palmitoyl-LKLE-OH)", "values": [{"measurement": "Collagen I (PIP) synthesis, change vs excipient control", "setting": "Collagen I (PIP); concentrations of 5 to 15 ppm", "result": "+81%"}, {"measurement": "Fibronectine synthesis, change vs excipient control", "setting": "Fibronectine; concentrations of 5 to 15 ppm", "result": "+48%"}, {"measurement": "Decorine synthesis, change vs excipient control", "setting": "Decorine [1]; concentrations of 5 to 15 ppm", "result": "+21%"}, {"measurement": "Fibrillin 1 formation (coverage density), change vs control", "setting": "Fibrillin 1; 10 ppm", "result": "+81% (p < 0.05)"}]}
{"molecule": "Pal-ELED-OH: N-palmitoylated tetrapeptide Glu-Leu-Glu-Asp, free C-terminal acid; ELED is a fragment of Biglycan (Palmitoyl-ELED-OH; SMILES CCCCCCCCCCCCCCCC(=O)N[C@@H](CCC(=O)O)C(=O)N[C@@H](CC(C)C)C(=O)N[C@@H](CCC(=O)O)C(=O)N[C@@H](CC(=O)O)C(=O)O)", "values": [{"measurement": "Collagen I (PIP) synthesis, change vs excipient control", "setting": "Collagen I (PIP); concentrations of 2 to 3 ppm", "result": "+42%"}, {"measurement": "Fibronectine synthesis, change vs excipient control", "setting": "Fibronectine; concentrations of 2 to 3 ppm", "result": "+70%"}, {"measurement": "Decorine synthesis, change vs excipient control", "setting": "Decorine [1]; concentrations of 2 to 3 ppm", "result": "+69%"}, {"measurement": "Collagen IV synthesis, change vs excipient control", "setting": "Collagen IV", "result": "+42%"}, {"measurement": "Hyaluronic acid synthesis, change vs excipient control", "setting": "Hyaluronic acid", "result": "+28%"}, {"measurement": "Fibrillin 1 formation (coverage density), change vs control", "setting": "Fibrillin 1; 4 ppm", "result": "+97% (p < 0.05)"}, {"measurement": "Nidogen-1 protein amount vs control", "setting": "Nidogen-1", "result": "stimulation"}, {"measurement": "Decorine protein amount vs control", "setting": "Decorine [2]", "result": "stimulation"}, {"measurement": "SOD3 protein amount vs control", "setting": "SOD3", "result": "stimulation"}, {"measurement": "RAD23A protein amount vs control", "setting": "RAD23A", "result": "stimulation"}]}
